{
  "source": "patent US9795590B2",
  "about": "“Anti-inflammatory agents as virostatic compounds” (Panoptes Pharma GmbH, priority 2014, dated 2017)",
  "key": {"[1]": {"target": "DHODH (human) (Homo sapiens, UniProt Q02127)", "sequence (Q02127 whole entry)": "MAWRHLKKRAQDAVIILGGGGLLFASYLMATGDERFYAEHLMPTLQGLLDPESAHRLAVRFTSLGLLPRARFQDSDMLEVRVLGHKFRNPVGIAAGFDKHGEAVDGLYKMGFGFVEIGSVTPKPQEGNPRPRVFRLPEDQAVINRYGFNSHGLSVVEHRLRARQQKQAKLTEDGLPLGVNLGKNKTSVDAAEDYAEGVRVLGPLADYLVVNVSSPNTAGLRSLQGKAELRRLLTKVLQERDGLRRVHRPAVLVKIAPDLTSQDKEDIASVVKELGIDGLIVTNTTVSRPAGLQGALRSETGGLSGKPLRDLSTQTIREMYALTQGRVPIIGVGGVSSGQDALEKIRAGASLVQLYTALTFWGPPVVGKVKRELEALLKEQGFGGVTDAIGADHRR", "assay": "DHODH in vitro enzymatic activity assay (human)", "type": "biochemical", "experimental": "(§1) Pharmacological parameters of compound 1 (Table 2) were determined by standard procedures, i.e. DHODH and kinase activity assays were performed according to Davis et al., (1996. The immunosuppressive metabolite of leflunomide is a potent inhibitor of human dihydroorotate dehydrogenase."}, "[2]": {"target": "DHODH (mouse) (Mus musculus, UniProt O35435)", "sequence (O35435 whole entry)": "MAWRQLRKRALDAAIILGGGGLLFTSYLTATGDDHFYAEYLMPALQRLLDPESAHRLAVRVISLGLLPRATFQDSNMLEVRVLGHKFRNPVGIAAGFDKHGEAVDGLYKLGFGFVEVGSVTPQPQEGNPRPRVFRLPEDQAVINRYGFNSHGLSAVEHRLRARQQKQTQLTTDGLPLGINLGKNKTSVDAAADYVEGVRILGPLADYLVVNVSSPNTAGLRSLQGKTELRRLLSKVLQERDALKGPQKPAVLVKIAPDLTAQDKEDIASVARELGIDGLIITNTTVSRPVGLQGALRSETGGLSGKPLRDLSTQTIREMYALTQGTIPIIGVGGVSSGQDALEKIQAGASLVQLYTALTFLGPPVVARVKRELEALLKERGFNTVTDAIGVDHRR", "assay": "DHODH in vitro enzymatic activity assay (mouse)", "type": "biochemical", "conditions": "read-out: Inhibitory activity in vitro (IC50) DHODH (mouse)"}, "[3]": {"target": "PI3K-α/-β/-γ/-δ", "assay": "kinase activity assay PI3K", "type": "biochemical", "conditions": "read-out: Inhibitory activity in vitro (IC50) PI3K-α/-β/-γ/-δ", "experimental": "as §1"}, "[4]": {"target": "AKT-1/-2/-3", "assay": "kinase activity assay AKT", "type": "biochemical", "conditions": "read-out: Inhibitory activity in vitro (IC50) AKT-1/-2/-3", "experimental": "as §1"}, "[5]": {"target": "JAK-1/-2/-3", "assay": "kinase activity assay JAK", "type": "biochemical", "conditions": "read-out: Inhibitory activity in vitro (IC50) JAK-1/-2/-3", "experimental": "as §1"}, "[6]": {"tested_on": "Human adenovirus type 2 (HAdV-2)", "assay": "plaque reduction assay HAdV-2 in A549", "type": "cell-based", "conditions": "Human mastadenovirus C, A549, n = 8, read-out: IC50 antiviral activity against HAdV-2", "experimental": "(§2) Antiviral assays were performed as described in the literature (Marschall, M. et al., 2000. Antimicrob. Agents Chemother. 44, 1588-1597; Marschall M. et al., 2012. Antimicrob. Agents Chemother. 56, 1135-1137; Kindsmüller et al., 2009. J. Virol. 83, 9045-9056; Rechter et al., 2006. Antiviral Res. 72, 197-206)."}, "[7]": {"tested_on": "A549", "assay": "drug-induced cytotoxicity, microscopic evaluation, A549", "type": "cell-based", "conditions": "HAdV-2 experiment, A549, 1-10 μM"}, "[8]": {"tested_on": "HHV-6, human herpesvirus type 6A, strain U1102", "assay": "antiviral assay HHV-6 in J-JHAN", "type": "cell-based", "conditions": "n = 8, read-out: IC50 of virus replication HHV-6", "experimental": "as §2"}, "[9]": {"tested_on": "VZV, varicella zoster virus, strain Oka", "assay": "antiviral assay VZV in primary human fibroblasts", "type": "cell-based", "conditions": "Human alphaherpesvirus 3, Fibroblast, read-out: IC50 of virus replication VZV", "experimental": "as §2"}, "[10]": {"tested_on": "HSV-1, herpes simplex virus type 1, strain 166v VP22-GFP", "assay": "GFP-based reporter assay HSV-1 in Vero", "type": "cell-based", "conditions": "Human alphaherpesvirus 1, Vero, read-out: IC50 of virus replication HSV-1", "experimental": "as §2"}, "[11]": {"tested_on": "HSV-2, herpes simplex virus type 2, isolate 01-6332", "assay": "antiviral assay HSV-2 in Vero", "type": "cell-based", "conditions": "Human alphaherpesvirus 2, n = 4, read-out: IC50 of virus replication HSV-2", "experimental": "as §2"}, "[12]": {"tested_on": "EBV, Epstein-Barr virus, strain B95-8", "assay": "antiviral assay EBV in 293T (T81GFP)", "type": "cell-based", "conditions": "human gammaherpesvirus 4, n = 4, read-out: IC50 of virus replication EBV", "experimental": "as §2"}, "[13]": {"tested_on": "Vaccina (vaccine virus, strain IHD-5)", "assay": "antiviral assay vaccinia virus in primary human fibroblasts", "type": "cell-based", "conditions": "Orthopoxvirus vaccinia, Fibroblast, read-out: IC50 of virus replication Vaccina", "experimental": "as §2"}, "[14]": {"tested_on": "J-JHAN", "assay": "drug-induced cytotoxicity, microscopic evaluation, J-JHAN", "type": "cell-based", "conditions": "HHV-6 experiment"}, "[15]": {"tested_on": "primary human fibroblasts", "assay": "drug-induced cytotoxicity, microscopic evaluation, primary human fibroblasts", "type": "cell-based"}, "[16]": {"tested_on": "Vero", "assay": "drug-induced cytotoxicity, microscopic evaluation, Vero", "type": "cell-based"}, "[17]": {"tested_on": "293T (T81GFP)", "assay": "drug-induced cytotoxicity, microscopic evaluation, 293T (T81GFP)", "type": "cell-based", "conditions": "EBV experiment"}, "[18]": {"tested_on": "HAdV A31", "assay": "virus yield assay HAdV A31 in A549", "type": "cell-based, human adenovirus", "conditions": "MOI 20, supernatant transfer 4 d post-infection, n=1", "experimental": "(§3) A549 cells were infected at MOI 20 and continuously treated with the given concentrations of compound 1. Virus-containing supernatants were transferred to uninfected cells at 4 d^1, 6 d^2 or 2 d^3 post-infection, respectively, and used for quantitation of infectious virus. Percentages of virus-positive cells per total cells were determined on the basis of indirect immunofluorescence staining (monoclonal anti-adenovirus hexon protein antibody; Abcam B025-AD51/ab7428) by microscopic countings: n=4 for C02, C05, D19, D37; n=3 for B03k, E04k; n=1 for A31, B03, D08, E04."}, "[19]": {"tested_on": "HAdV B03", "assay": "virus yield assay HAdV B03 in A549", "type": "cell-based, human adenovirus", "conditions": "MOI 20, supernatant transfer 6 d post-infection, n=1", "experimental": "as §3"}, "[20]": {"tested_on": "HAdV B03k", "assay": "virus yield assay HAdV B03k (clinical isolate) in A549", "type": "cell-based, human adenovirus", "conditions": "MOI 20, supernatant transfer 6 d post-infection, n=3", "experimental": "as §3"}, "[21]": {"tested_on": "HAdV C02", "assay": "virus yield assay HAdV C02 in A549", "type": "cell-based, human adenovirus", "conditions": "MOI 20, supernatant transfer 2 d post-infection, n=4", "experimental": "as §3"}, "[22]": {"tested_on": "HAdV C05", "assay": "virus yield assay HAdV C05 in A549", "type": "cell-based, human adenovirus", "conditions": "MOI 20, supernatant transfer 2 d post-infection, n=4", "experimental": "as §3"}, "[23]": {"tested_on": "HAdV D08", "assay": "virus yield assay HAdV D08 in A549", "type": "cell-based, human adenovirus", "conditions": "MOI 20, supernatant transfer 4 d post-infection, n=1", "experimental": "as §3"}, "[24]": {"tested_on": "HAdV D19", "assay": "virus yield assay HAdV D19 in A549", "type": "cell-based, human adenovirus", "conditions": "MOI 20, supernatant transfer 4 d post-infection, n=4", "experimental": "as §3"}, "[25]": {"tested_on": "HAdV D37", "assay": "virus yield assay HAdV D37 in A549", "type": "cell-based, human adenovirus", "conditions": "MOI 20, supernatant transfer 6 d post-infection, n=4", "experimental": "as §3"}, "[26]": {"tested_on": "HAdV E04", "assay": "virus yield assay HAdV E04 in A549", "type": "cell-based, human adenovirus", "conditions": "MOI 20, supernatant transfer 6 d post-infection, n=1", "experimental": "as §3"}, "[27]": {"tested_on": "HAdV E04k", "assay": "virus yield assay HAdV E04k (clinical isolate) in A549", "type": "cell-based, human adenovirus", "conditions": "MOI 20, supernatant transfer 6 d post-infection, n=3", "experimental": "as §3"}},
  "data": [
    {"smiles": "Nc1nc2c(ncn2COC(CO)CO)c(=O)[nH]1", "note": "[GCV, reference compound]", "values": [
      {"measurement": "DHODH activity remaining", "setting": "[1]; at 10 μM, duplicate testings", "result": 100, "unit": "%"}
    ]},
    {"smiles": "O=C(Nc1c(F)c(F)c(-c2cccc(OC(F)(F)F)c2)c(F)c1F)c1ccsc1C(=O)O", "note": "[compound 1, 3-(2,3,5,6-tetrafluoro-3′-trifluoromethoxy-biphenyl-4-ylcarbamoyl)-thiophene-2-carboxylic acid]", "values": [
      {"measurement": "IC50", "setting": "[1]; purified human DHODH, read-out: Inhibitory activity in vitro (IC50) DHODH (human)", "result": "1.5 ± 0.2", "unit": "nM"},
      {"measurement": "IC50", "setting": "[2]", "result": "3.2 ± 0.8", "unit": "nM"},
      {"measurement": "IC50", "setting": "[3]", "result": "> 1000", "unit": "nM"},
      {"measurement": "IC50", "setting": "[4]", "result": "> 15000", "unit": "nM"},
      {"measurement": "IC50", "setting": "[5]", "result": "> 10000", "unit": "nM"},
      {"measurement": "IC50", "setting": "[6]", "result": "560 ± 20", "unit": "nM"},
      {"measurement": "Cytotoxicity [1-10 μM]", "setting": "[7]", "result": "None"},
      {"measurement": "Cytotoxicity [1-10 μM]", "setting": "[7]; listed as Compound 1", "result": "none"},
      {"measurement": "IC50", "setting": "[8]", "result": "1550 ± 310", "unit": "nM"},
      {"measurement": "IC50", "setting": "[9]", "result": "3550 ± 260", "unit": "nM"},
      {"measurement": "IC50", "setting": "[10]", "result": "> 10000", "unit": "nM"},
      {"measurement": "IC50", "setting": "[11]", "result": "> 10000", "unit": "nM"},
      {"measurement": "IC50", "setting": "[12]", "result": "> 10000", "unit": "nM"},
      {"measurement": "IC50", "setting": "[13]", "result": "9850 ± 6610", "unit": "nM"},
      {"measurement": "Cytotoxicity [1-10 μM]", "setting": "[14]", "result": "none"},
      {"measurement": "Cytotoxicity [1-10 μM]", "setting": "[15]; VZV experiment", "result": "none"},
      {"measurement": "Cytotoxicity [1-10 μM]", "setting": "[15]; Vaccina experiment", "result": "none"},
      {"measurement": "Cytotoxicity [1-10 μM]", "setting": "[16]; HSV-1 experiment", "result": "none"},
      {"measurement": "Cytotoxicity [1-10 μM]", "setting": "[16]; HSV-2 experiment", "result": "none"},
      {"measurement": "Cytotoxicity [1-10 μM]", "setting": "[17]", "result": "none"},
      {"measurement": "virus-positive cells (0 μM = 100), HAdV A31", "setting": "[18]; 0.37 μM", "result": 72, "unit": "%"},
      {"measurement": "virus-positive cells (0 μM = 100), HAdV A31", "setting": "[18]; 1.11 μM", "result": 3, "unit": "%"},
      {"measurement": "virus-positive cells (0 μM = 100), HAdV B03", "setting": "[19]; 0.37 μM", "result": 127, "unit": "%"},
      {"measurement": "virus-positive cells (0 μM = 100), HAdV B03", "setting": "[19]; 1.11 μM", "result": 29, "unit": "%"},
      {"measurement": "virus-positive cells (0 μM = 100), HAdV B03k", "setting": "[20]; 0.37 μM", "result": 70, "unit": "%"},
      {"measurement": "virus-positive cells (0 μM = 100), HAdV B03k", "setting": "[20]; 1.11 μM", "result": 11, "unit": "%"},
      {"measurement": "virus-positive cells (0 μM = 100), HAdV C02", "setting": "[21]; 0.37 μM", "result": 100, "unit": "%"},
      {"measurement": "virus-positive cells (0 μM = 100), HAdV C02", "setting": "[21]; 1.11 μM", "result": 9, "unit": "%"},
      {"measurement": "virus-positive cells (0 μM = 100), HAdV C05", "setting": "[22]; 0.37 μM", "result": 82, "unit": "%"},
      {"measurement": "virus-positive cells (0 μM = 100), HAdV C05", "setting": "[22]; 1.11 μM", "result": 6, "unit": "%"},
      {"measurement": "virus-positive cells (0 μM = 100), HAdV D08", "setting": "[23]; 0.37 μM", "result": 6, "unit": "%"},
      {"measurement": "virus-positive cells (0 μM = 100), HAdV D08", "setting": "[23]; 1.11 μM", "result": 0, "unit": "%"},
      {"measurement": "virus-positive cells (0 μM = 100), HAdV D19", "setting": "[24]; 0.37 μM", "result": 81, "unit": "%"},
      {"measurement": "virus-positive cells (0 μM = 100), HAdV D19", "setting": "[24]; 1.11 μM", "result": 4, "unit": "%"},
      {"measurement": "virus-positive cells (0 μM = 100), HAdV D37", "setting": "[25]; 0.37 μM", "result": 96, "unit": "%"},
      {"measurement": "virus-positive cells (0 μM = 100), HAdV D37", "setting": "[25]; 1.11 μM", "result": 3, "unit": "%"},
      {"measurement": "virus-positive cells (0 μM = 100), HAdV E04", "setting": "[26]; 0.37 μM", "result": 128, "unit": "%"},
      {"measurement": "virus-positive cells (0 μM = 100), HAdV E04", "setting": "[26]; 1.11 μM", "result": 23, "unit": "%"},
      {"measurement": "virus-positive cells (0 μM = 100), HAdV E04k", "setting": "[27]; 0.37 μM", "result": 115, "unit": "%"},
      {"measurement": "virus-positive cells (0 μM = 100), HAdV E04k", "setting": "[27]; 1.11 μM", "result": 9, "unit": "%"}
    ]}
  ]
}
